The values that follow come from ChEMBL document CHEMBL1201862, “PubChem BioAssay data set” (2004).

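Briefly, cells in 96-well plates were exposed to five compound concentrations for 48 h, and endpoints were estimated by linear interpolation. Here, GI50 denotes the concentration required for 50% inhibition of growth.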 Calls of active or inactive are those of the source. Rule as the data show it: active = GI50 up to about 1.1 µM and inactive = higher.

Among the test systems are CCRF-CEM; OVCAR-4; HCC 2998; SNB-19; COLO 205; 786-0; HT-29; LOX IMVI; SF-268; CAKI-1; IGROV-1; UACC-62; Malme-3M; HOP-18; HOP-62; T47D; MCF7; Hs-578T; PC-3; MDA-MB-435.
What all share (test): growth of human tumour cells (NCI), 48 h

As for `CC1=C(/C=C/C(C)=C/C=C/C(C)=C/C=C/C=C(C)/C=C/C=C(C)/C=C/C2=C(C)C(=O)C(O)CC2(C)C)C(C)(C)CC(O)C1=O` (stereo not given), the GI50 in the test with CCRF-CEM, in the test on OVCAR-4, in the test on HCC 2998, in the test on SNB-19, in the test with COLO 205 and with 786-0 was > 100 µM (inactive) throughout. Further, the GI50 in the test with HT-29, in the test on LOX IMVI, in the test with SF-268, with CAKI-1, in the test on IGROV-1 and in the test with UACC-62 was > 100 µM (inactive) each time. Moreover, the GI50 in the test on Malme-3M, in the test with HOP-18 and in the test on HOP-62 was > 100 µM (inactive) throughout.

Turning to `C=C1COC(O)(C2OCOC(C3CC(=O)NC(=O)C3)C2O)C1C` (stereo not given), the GI50 with CCRF-CEM was 0.00106 µM (active); with OVCAR-4, 0.00342 µM (active); in the test on HCC 2998, 0.00278 µM (active); in the test on SNB-19, 0.00233 µM (active); in the test on COLO 205 it was 0.00244 µM (active); with 786-0, 0.00512 µM (active). Moreover, the GI50 in the test with T47D is 0.00146 µM (active); in the test with HT-29 it was 0.00278 µM (active); with MCF7, 0.00268 µM (active); in the test with LOX IMVI it was 0.00158 µM (active); in the test on SF-268, 0.00511 µM (active); in the test on CAKI-1, 0.00468 µM (active). Further, the GI50 with IGROV-1 is 0.00562 µM (active); with UACC-62 it was 0.00429 µM (active); in the test on Hs-578T, 0.00629 µM (active); in the test on Malme-3M, 0.00221 µM (active); in the test with HOP-18, 0.00357 µM (active); with HOP-62, 0.00622 µM (active). The GI50 in the test with PC-3 was 0.0031 µM (active); in the test on MDA-MB-435, 0.00333 µM (active).

As for `Cc1cc(N(CCC#N)S(C)(=O)=O)ccc1C=O`, the GI50 in the test with CCRF-CEM, with OVCAR-4, in the test with HCC 2998, with SNB-19, with COLO 205 and in the test on 786-0 was > 100 µM (inactive) in each case. The GI50 in the test on HT-29, with LOX IMVI, with SF-268, in the test on CAKI-1, with IGROV-1 and with UACC-62 was > 100 µM (inactive) in each case. Further, the GI50 in the test with Malme-3M, in the test with HOP-18 and in the test with HOP-62 was > 100 µM (inactive) each time.

`CCOC(=O)/N=c1\ss/c(=N\C(=S)N(C)C)n1-c1ccccc1`: the GI50 is 29.6 µM (inactive) in the test on CCRF-CEM; 2.16 µM (inactive) in the test on OVCAR-4; > 10 µM (inactive) in the test with HCC 2998; 47.2 µM (inactive) with SNB-19; 3.19 µM (inactive) in the test with COLO 205; 14.6 µM (inactive) in the test on 786-0. In addition, the GI50 was 3.17 µM (inactive) with HT-29; > 100 µM (inactive) in the test with LOX IMVI; 2.06 µM (inactive) in the test on SF-268; 48 µM (inactive) in the test with CAKI-1; 4.11 µM (inactive) with IGROV-1; 72.3 µM (inactive) in the test with UACC-62. Besides, the GI50 with Malme-3M is > 10 µM (inactive); in the test with HOP-18 it was > 10 µM (inactive); in the test on HOP-62, 42.5 µM (inactive).

On to `CCOC(=O)/C(C#N)=C1\N[C@H](C(=O)OCC)CO1`, for which the GI50 in the test with CCRF-CEM, in the test with OVCAR-4, in the test with HCC 2998, with SNB-19, in the test on COLO 205 and in the test with 786-0 was > 100 µM (inactive) throughout. The GI50 with HT-29, in the test with LOX IMVI, in the test with SF-268, in the test on CAKI-1, in the test with IGROV-1 and with UACC-62 was > 100 µM (inactive) in each case. Also, the GI50 in the test with Malme-3M, with HOP-18 and with HOP-62 was > 100 µM (inactive) each time.

For the compound `O=C(CCc1nnc(S)[nH]1)NC12CC3CC(CC(C3)C1)C2`, the GI50 in the test on CCRF-CEM, in the test on OVCAR-4, with HCC 2998, in the test on SNB-19, in the test with COLO 205 and in the test with 786-0 was > 100 µM (inactive) in each case. Moreover, the GI50 in the test on HT-29 is > 100 µM (inactive); with LOX IMVI, > 100 µM (inactive); in the test with SF-268, > 10 µM (inactive); in the test on CAKI-1 it was > 70.5 µM (inactive); in the test with IGROV-1, > 100 µM (inactive); in the test on UACC-62, > 100 µM (inactive). Further, the GI50 in the test on Malme-3M, in the test with HOP-18 and in the test on HOP-62 was > 100 µM (inactive) in each case.

For `N#CCCN(CCC#N)c1ccc(/C=N\c2ccc(F)cc2)cc1`, the GI50 in the test with CCRF-CEM was 20.8 µM (inactive); in the test on OVCAR-4, > 49.1 µM (inactive); in the test on HCC 2998, 1.33 µM (inactive); in the test on SNB-19, > 100 µM (inactive); with COLO 205, 14 µM (inactive); in the test with 786-0, > 31.3 µM (inactive). The GI50 in the test with T47D was > 100 µM (inactive); in the test on MCF7, > 100 µM (inactive); in the test with LOX IMVI it was 0.236 µM (active); with SF-268, 35.2 µM (inactive); with CAKI-1 it was > 68.5 µM (inactive); with IGROV-1, 45.6 µM (inactive). In addition, the GI50 in the test on UACC-62 was 0.536 µM (active); in the test on Malme-3M it was > 84.3 µM (inactive); in the test on HOP-18 it was > 100 µM (inactive); in the test on HOP-62, 27.1 µM (inactive); in the test on PC-3, 75.3 µM (inactive); with MDA-MB-435, 17.3 µM (inactive).

As for `CN(C)C(=N/O)/C(=N\O)N(C)C`, the GI50 in the test with CCRF-CEM, in the test with OVCAR-4, with HCC 2998, in the test on SNB-19, with 786-0 and in the test with HT-29 was > 100 µM (inactive) in each case. Moreover, the GI50 in the test with LOX IMVI, in the test on SF-268, with CAKI-1, with IGROV-1, in the test on UACC-62 and in the test on Malme-3M was > 100 µM (inactive) throughout. Moreover, the GI50 in the test on HOP-18 and in the test on HOP-62 was > 100 µM (inactive) in each case.

Take `CC1(C)OC(=O)C(=C2CCC(C(=O)Nc3cccc(C(F)(F)F)c3)N2)C(=O)O1` (stereo not given): the GI50 in the test with CCRF-CEM was 44.8 µM (inactive); in the test with OVCAR-4 it was 61.4 µM (inactive); in the test on HCC 2998, 43.7 µM (inactive); in the test with SNB-19, 41.2 µM (inactive); in the test on COLO 205, > 100 µM (inactive); in the test with 786-0, > 100 µM (inactive). For the same compound, the GI50 with HT-29 is 75.7 µM (inactive); in the test on LOX IMVI, 60.4 µM (inactive); with SF-268, > 100 µM (inactive); in the test on CAKI-1, 9.77 µM (inactive); in the test with IGROV-1 it was > 100 µM (inactive); with UACC-62, 45.2 µM (inactive). The results for the GI50 in the test with Malme-3M, in the test with HOP-18 and with HOP-62 were 50.1 µM (inactive), > 100 µM (inactive) and > 100 µM (inactive), respectively.

For the compound `CCCC/C=C/C=C/C=C/CCCCCCCC(=O)OCC(COC(=O)CCCCCCC/C=C/C1C=CC(CCCC)C(C(=O)O)C1C(=O)O)OC(=O)CCCCCCC/C=C/C=C/C=C/CCCC.OCCNCO` (stereo not given), the GI50 in the test on CCRF-CEM was 11.9 µM (inactive); with OVCAR-4, 17 µM (inactive); with HCC 2998, 23.4 µM (inactive); in the test on SNB-19 it was 20.2 µM (inactive); with COLO 205 it was 15.8 µM (inactive); in the test with 786-0, 13.7 µM (inactive). The GI50 in the test with HT-29 was 16.7 µM (inactive); in the test on LOX IMVI it was 13.2 µM (inactive); in the test with SF-268, 17.5 µM (inactive); with CAKI-1, 28.8 µM (inactive); in the test on IGROV-1, 19.8 µM (inactive); with UACC-62 it was 14.8 µM (inactive). The GI50 was 20.9 µM (inactive) in the test on Malme-3M, 17.2 µM (inactive) with HOP-18 and 18.6 µM (inactive) with HOP-62.

As to `COc1ccc2nc3ccccc3c(NCCN(C)CCCl)c2c1`, the GI50 in the test with CCRF-CEM was 0.353 µM (active); with OVCAR-4 it was 0.908 µM (active); in the test with HCC 2998, 0.67 µM (active); with SNB-19 it was 1.12 µM (inactive); with COLO 205, 0.299 µM (active); in the test on 786-0, 0.21 µM (active). The GI50 is 0.377 µM (active) in the test on HT-29; 0.587 µM (active) in the test with MCF7; 0.336 µM (active) in the test with LOX IMVI; 0.55 µM (active) in the test with SF-268; 0.205 µM (active) in the test with CAKI-1; 0.469 µM (active) in the test with IGROV-1. Besides, the GI50 in the test with UACC-62 was 0.681 µM (active); with Malme-3M, 0.399 µM (active); in the test with HOP-18 it was 2.06 µM (inactive); in the test with HOP-62, 0.869 µM (active); in the test with PC-3, 0.205 µM (active); in the test with MDA-MB-435 it was 0.364 µM (active).

As for `Cc1nn2c(nc1=O)sc1ccc3ccccc3c12`, the GI50 with CCRF-CEM, in the test on OVCAR-4, in the test with HCC 2998, with SNB-19, with COLO 205 and in the test on 786-0 was > 100 µM (inactive) in each case. Further, the GI50 with HT-29, with LOX IMVI, in the test with SF-268, in the test with CAKI-1, with IGROV-1 and in the test with UACC-62 was > 100 µM (inactive) each time. Moreover, the GI50 in the test with Malme-3M, with HOP-18 and in the test with HOP-62 was > 100 µM (inactive) throughout.
